Source: ChEMBL document CHEMBL1201861, “Genomics of Drug Sensitity in Cancer screening data, Wellcome Trust Sanger Institute”

Columns and labels:
Experiment in all cases: cells
OCI-AML2 = type: functional, cell-based, Homo sapiens; details: Homo sapiens, OCI-AML2;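 also: growth inhibition of OCI-AML2 cells, read out with a cell viability assay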
Description: SANGER: Inhibition of human OCI-AML2 cell growth in a cell viability assay.

NTERA-2-cl-D1 = type: functional, cell-based, Homo sapiens; details: Homo sapiens, NTERA-2-cl-D1;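 also: inhibition of cell growth, measured with a cell viability assay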
Description: SANGER: Inhibition of human NTERA-S-cl-D1 cell growth in a cell viability assay.

TE-12 = type: functional, cell-based, Homo sapiens; details: Homo sapiens, TE-12;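 also: growth inhibition of TE-12 cells, read out by a cell viability assay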
Description: SANGER: Inhibition of human TE-12 cell growth in a cell viability assay.

MZ7-mel = type: functional, cell-based, Homo sapiens; details: Homo sapiens, MZ7-mel;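 also: growth inhibition of human MZ7-mel cells, measured by a cell viability assay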
Description: SANGER: Inhibition of human MZ7-mel cell growth in a cell viability assay.

JAR = type: functional, cell-based, Homo sapiens; details: Homo sapiens, JAR;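 also: growth inhibition of human JAR cells determined with a cell viability assay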
Description: SANGER: Inhibition of human JAR cell growth in a cell viability assay.

LS-123 = type: functional, cell-based, Homo sapiens; details: Homo sapiens, LS-123
Description: SANGER: Inhibition of human LS-123 cell growth in a cell viability assay.

EKVX = type: functional, cell-based, Homo sapiens; details: Homo sapiens, EKVX;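 also: growth inhibition of human EKVX cells, read out with a cell viability assay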
Description: SANGER: Inhibition of human EKVX cell growth in a cell viability assay.

MEG-01 = type: functional, cell-based, Homo sapiens; details: Homo sapiens, MEG-01;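 also: growth inhibition of MEG-01 cells, read out by a cell viability assay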
Description: SANGER: Inhibition of human MEG-01 cell growth in a cell viability assay.

ES5 = type: functional, cell-based, Homo sapiens; details: Homo sapiens, ES5;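 also: growth inhibition of human ES5 cells, read out by a cell viability assay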
Description: SANGER: Inhibition of human ES5 cell growth in a cell viability assay.

COLO-320-HSR = type: functional, cell-based, Homo sapiens; details: Homo sapiens, COLO-320-HSR;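 also: growth inhibition of COLO-320-HSR cells, determined with a cell viability assay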
Description: SANGER: Inhibition of human COLO-320-HSR cell growth in a cell viability assay.

MFH-ino = type: functional, cell-based, Homo sapiens; details: Homo sapiens, MFH-ino;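 also: growth inhibition of human MFH-ino cells, read out by a cell viability assay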
Description: SANGER: Inhibition of human MFH-ino cell growth in a cell viability assay.

KNS-42 = type: functional, cell-based, Homo sapiens; details: Homo sapiens, KNS-42;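 also: growth inhibition of KNS-42 cells, read out with a cell viability assay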
Description: SANGER: Inhibition of human KNS-42 cell growth in a cell viability assay.

HCC 2998 = type: functional, cell-based, Homo sapiens; details: Homo sapiens, HCC 2998;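 also: growth inhibition of human HCC2998 cells, measured with a cell viability read-out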
Description: SANGER: Inhibition of human HCC2998 cell growth in a cell viability assay.

EW-1 = type: functional, cell-based, Homo sapiens; details: Homo sapiens, EW-1;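 also: growth inhibition of the human EW-1 cell line, read out by a cell viability assay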
Description: SANGER: Inhibition of human EW-1 cell growth in a cell viability assay.

SK-N-DZ = type: functional, cell-based, Homo sapiens; details: Homo sapiens, SK-N-DZ;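 also: growth inhibition of the cancer cell line, read out through a viability assay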
Description: SANGER: Inhibition of human SK-N-DZ cell growth in a cell viability assay.

NCI-H510A = type: functional, cell-based, Homo sapiens; details: Homo sapiens, NCI-H510A;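 also: growth inhibition of NCI-H510A cells, read out with a cell viability assay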
Description: SANGER: Inhibition of human NCI-H510A cell growth in a cell viability assay.

IST-MES1 = type: functional, cell-based, Homo sapiens; details: Homo sapiens, IST-MES1;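 also: growth inhibition of IST-MES1 cells, measured with a cell viability assay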
Description: SANGER: Inhibition of human IST-MES1 cell growth in a cell viability assay.

OMC-1 = type: functional, cell-based, Homo sapiens; details: Homo sapiens, OMC-1;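 also: growth inhibition of the OMC-1 cell line, measured by a cell viability assay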
Description: SANGER: Inhibition of human OMC-1 cell growth in a cell viability assay.

HuTu80 = type: functional, cell-based, Homo sapiens, HUTU-80; details: Homo sapiens, HuTu80;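 also: growth inhibition of HuTu80 human cells, determined with a cell viability readout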
Description: SANGER: Inhibition of human HUTU-80 cell growth in a cell viability assay.

NCI-H226 = type: functional, cell-based, Homo sapiens; details: Homo sapiens, NCI-H226;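 also: cell viability read-out used to gauge growth inhibition of the cells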
Description: SANGER: Inhibition of human NCI-H226 cell growth in a cell viability assay.

D-247MG = type: functional, cell-based, Homo sapiens; details: Homo sapiens, D-247MG
Description: SANGER: Inhibition of human D-247MG cell growth in a cell viability assay.

HDLM-2 = type: functional, cell-based, Homo sapiens; details: Homo sapiens, HDLM-2;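 also: cell viability assay measuring suppression of HDLM-2 proliferation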
Description: SANGER: Inhibition of human HDLM-2 cell growth in a cell viability assay.

OS-RC-2 = type: functional, cell-based, Homo sapiens; details: Homo sapiens, OS-RC-2;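 also: growth inhibition of human OS-RC-2 cells, measured by a cell viability assay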
Description: SANGER: Inhibition of human OS-RC-2 cell growth in a cell viability assay.

LU-139 = type: functional, cell-based, Homo sapiens; details: Homo sapiens, LU-139
Description: SANGER: Inhibition of human LU-139 cell growth in a cell viability assay.

KINGS-1 = type: functional, cell-based, Homo sapiens; details: Homo sapiens, KINGS-1;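 also: cell viability assay measuring suppression of KINGS-1 cell growth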
Description: SANGER: Inhibition of human KINGS-1 cell growth in a cell viability assay.

A388 = type: functional, cell-based, Homo sapiens; details: Homo sapiens, A388;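 also: growth inhibition of human A388 cells, read out with a cell viability assay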
Description: SANGER: Inhibition of human A388 cell growth in a cell viability assay.

JVM-3 = type: functional, cell-based, Homo sapiens; details: Homo sapiens, JVM-3;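 also: growth inhibition of human JVM-3 cells, read out with a cell viability assay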
Description: SANGER: Inhibition of human JVM-3 cell growth in a cell viability assay.

DEL = type: functional, cell-based, Homo sapiens; details: Homo sapiens, DEL;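 also: growth inhibition of the human DEL cell line, read out with a cell viability assay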
Description: SANGER: Inhibition of human DEL cell growth in a cell viability assay.

SW872 = type: functional, cell-based, Homo sapiens; details: Homo sapiens, SW872;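 also: growth inhibition of SW872 cells, read out by a viability assay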
Description: SANGER: Inhibition of human SW872 cell growth in a cell viability assay.

L-363 = type: functional, cell-based, Homo sapiens; details: Homo sapiens, L-363
Description: SANGER: Inhibition of human L-363 cell growth in a cell viability assay.

SK-MEL-2 = type: functional, cell-based, Homo sapiens; details: Homo sapiens, SK-MEL-2;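 also: growth inhibition of human SK-MEL-2 cells measured with a cell viability assay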
Description: SANGER: Inhibition of human SK-MEL-2 cell growth in a cell viability assay.

no-10 = type: functional, cell-based, Homo sapiens; details: Homo sapiens;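 also: growth inhibition of no-10 cells, read out with a cell viability assay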
Description: SANGER: Inhibition of human no-10 cell growth in a cell viability assay.

CTB-1 = type: functional, cell-based, Homo sapiens; details: Homo sapiens, CTB-1
Description: SANGER: Inhibition of human CTB-1 cell growth in a cell viability assay.

MFM-223 = type: functional, cell-based, Homo sapiens; details: Homo sapiens, MFM-223
Description: SANGER: Inhibition of human MFM-223 cell growth in a cell viability assay.

GOTO = type: functional, cell-based, Homo sapiens; details: Homo sapiens, GOTO;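 also: growth inhibition of GOTO cells, read out by a cell viability assay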
Description: SANGER: Inhibition of human GOTO cell growth in a cell viability assay.

NCI-N87 = type: functional, cell-based, Homo sapiens; details: Homo sapiens, NCI-N87;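 also: growth inhibition of human NCI-N87 cells, read out with a cell viability assay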
Description: SANGER: Inhibition of human NCI-N87 cell growth in a cell viability assay.

MZ2-MEL = type: functional, cell-based, Homo sapiens; details: Homo sapiens, MZ2-MEL;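 also: growth inhibition of MZ2-MEL cells read out with a cell viability assay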
Description: SANGER: Inhibition of human MZ2-MEL cell growth in a cell viability assay.

NCI-H1648 = type: functional, cell-based, Homo sapiens; details: Homo sapiens, NCI-H1648;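 also: cell viability assay measuring inhibition of NCI-H1648 cell growth, from the Sanger screening data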
Description: SANGER: Inhibition of human NCI-H1648 cell growth in a cell viability assay.

UACC-257 = type: functional, cell-based, Homo sapiens; details: Homo sapiens, UACC-257
Description: SANGER: Inhibition of human UACC-257 cell growth in a cell viability assay.

GI-1 = type: functional, cell-based, Homo sapiens; details: Homo sapiens, GI-1;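 also: growth inhibition of human GI-1 cells, measured with a cell viability readout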
Description: SANGER: Inhibition of human GI-1 cell growth in a cell viability assay.

ACN = type: functional, cell-based, Homo sapiens; details: Homo sapiens, ACN;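 also: growth inhibition of the human ACN cell line, read out via cell viability testing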
Description: SANGER: Inhibition of human ACN cell growth in a cell viability assay.

SHP77 = type: functional, cell-based, Homo sapiens, SHP-77; details: Homo sapiens, SHP77;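 also: growth inhibition of human SHP-77 cells measured by a cell viability assay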
Description: SANGER: Inhibition of human SHP-77 cell growth in a cell viability assay.

LC-2-ad = type: functional, cell-based, Homo sapiens; details: Homo sapiens, LC-2-ad;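 also: growth inhibition of human LC-2-ad cells, read out with a cell viability assay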
Description: SANGER: Inhibition of human LC-2-ad cell growth in a cell viability assay.

GAK = type: functional, cell-based, Homo sapiens; details: Homo sapiens, GAK;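 also: cell growth inhibition read out by a cell viability assay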
Description: SANGER: Inhibition of human GAK cell growth in a cell viability assay.

NCI-H446 = type: functional, cell-based, Homo sapiens; details: Homo sapiens, NCI-H446;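 also: growth inhibition of NCI-H446 cells determined by a cell viability assay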
Description: SANGER: Inhibition of human NCI-H446 cell growth in a cell viability assay.

MOLT-16 = type: functional, cell-based, Homo sapiens; details: Homo sapiens, MOLT-16;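 also: growth inhibition of human MOLT-16 cells, read out with a cell viability assay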
Description: SANGER: Inhibition of human MOLT-16 cell growth in a cell viability assay.

DB = type: functional, cell-based, Homo sapiens; details: Homo sapiens, DB
Description: SANGER: Inhibition of human DB cell growth in a cell viability assay.

NEC8 = type: functional, cell-based, Homo sapiens; details: Homo sapiens, NEC8;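 also: growth inhibition of human NEC8 cells, read out by a cell viability assay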
Description: SANGER: Inhibition of human NEC8 cell growth in a cell viability assay.

NCI-H720 = type: functional, cell-based, Homo sapiens; details: Homo sapiens, NCI-H720;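 also: growth inhibition of human NCI-H720 cells determined by a cell viability assay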
Description: SANGER: Inhibition of human NCI-H720 cell growth in a cell viability assay.

CS(=O)(=O)c1ccc(C(=O)Nc2ccc(Cl)c(-c3ccccn3)c2)c(Cl)c1 [VISMODEGIB]
IC50 (OCI-AML2): > 10 µM | IC50 (NTERA-2-cl-D1): > 10 µM | IC50 (TE-12): > 10 µM | IC50 (MZ7-mel): > 10 µM | IC50 (JAR): > 10 µM | IC50 (LS-123): > 10 µM | IC50 (EKVX): > 10 µM | IC50 (MEG-01): > 10 µM | IC50 (ES5): > 10 µM | IC50 (COLO-320-HSR): > 10 µM | IC50 (MFH-ino): > 10 µM | IC50 (KNS-42): > 10 µM | IC50 (HCC 2998): > 10 µM | IC50 (EW-1): > 10 µM | IC50 (SK-N-DZ): > 10 µM | IC50 (NCI-H510A): > 10 µM | IC50 (IST-MES1): > 10 µM | IC50 (OMC-1): > 10 µM | IC50 (HuTu80): > 10 µM | IC50 (NCI-H226): > 10 µM | IC50 (D-247MG): > 10 µM | IC50 (HDLM-2): 8.05 µM | IC50 (OS-RC-2): > 10 µM | IC50 (LU-139): > 10 µM | IC50 (KINGS-1): > 10 µM | IC50 (A388): > 10 µM | IC50 (JVM-3): > 10 µM | IC50 (DEL): > 10 µM | IC50 (SW872): > 10 µM | IC50 (L-363): > 10 µM | IC50 (SK-MEL-2): > 10 µM | IC50 (no-10): > 10 µM | IC50 (CTB-1): > 10 µM | IC50 (MFM-223): > 10 µM | IC50 (GOTO): > 10 µM | IC50 (NCI-N87): > 10 µM | IC50 (MZ2-MEL): > 10 µM | IC50 (NCI-H1648): > 10 µM | IC50 (UACC-257): > 10 µM | IC50 (GI-1): > 10 µM | IC50 (ACN): 8.5 µM | IC50 (SHP77): > 10 µM | IC50 (LC-2-ad): > 10 µM | IC50 (GAK): > 10 µM | IC50 (NCI-H446): > 10 µM | IC50 (MOLT-16): > 10 µM | IC50 (DB): > 10 µM | IC50 (NEC8): > 10 µM

CC(C)CCN1c2nc(Nc3cc(F)c(O)c(F)c3)ncc2N(C)C(=O)C1C (configuration not stated)
IC50 (OCI-AML2): > 5 µM | IC50 (NTERA-2-cl-D1): > 5 µM | IC50 (TE-12): > 5 µM | IC50 (MZ7-mel): > 5 µM | IC50 (JAR): > 5 µM | IC50 (LS-123): > 5 µM | IC50 (EKVX): > 5 µM | IC50 (MEG-01): > 5 µM | IC50 (ES5): 2.24 µM | IC50 (NCI-H720): 0.172 µM | IC50 (COLO-320-HSR): > 5 µM | IC50 (MFH-ino): > 5 µM | IC50 (KNS-42): > 5 µM | IC50 (HCC 2998): > 5 µM | IC50 (EW-1): 2.75 µM | IC50 (SK-N-DZ): > 5 µM | IC50 (IST-MES1): > 5 µM | IC50 (OMC-1): > 5 µM | IC50 (HuTu80): 3.67 µM | IC50 (NCI-H226): > 5 µM | IC50 (D-247MG): > 5 µM | IC50 (HDLM-2): > 5 µM | IC50 (OS-RC-2): > 5 µM | IC50 (LU-139): 0.85 µM | IC50 (KINGS-1): > 5 µM | IC50 (A388): > 5 µM | IC50 (JVM-3): 3.07 µM | IC50 (DEL): > 5 µM | IC50 (SW872): > 5 µM | IC50 (L-363): > 5 µM | IC50 (SK-MEL-2): > 5 µM | IC50 (no-10): > 5 µM | IC50 (CTB-1): 1.45 µM | IC50 (MFM-223): > 5 µM | IC50 (GOTO): 3.28 µM | IC50 (NCI-N87): > 5 µM | IC50 (MZ2-MEL): > 5 µM | IC50 (NCI-H1648): > 5 µM | IC50 (UACC-257): > 5 µM | IC50 (GI-1): 3.15 µM | IC50 (ACN): 2.67 µM | IC50 (SHP77): > 5 µM | IC50 (LC-2-ad): > 5 µM | IC50 (GAK): > 5 µM | IC50 (NCI-H446): 3.68 µM | IC50 (MOLT-16): > 5 µM | IC50 (DB): 2.55 µM | IC50 (NEC8): 1.7 µM

CC(C)c1ccccc1Cc1cc(C(=O)Nc2ccc(S(=O)(=O)c3ccccc3C(C)(C)C)cc2)c(O)c(O)c1O
IC50 (NTERA-2-cl-D1): 0.167 µM | IC50 (MZ7-mel): 1.73 µM | IC50 (JAR): 0.0026 µM | IC50 (LS-123): 2.2 µM | IC50 (EKVX): 7.14 µM | IC50 (ES5): 0.884 µM | IC50 (KNS-42): 2.54 µM | IC50 (HCC 2998): 5.89 µM | IC50 (EW-1): 0.227 µM | IC50 (SK-N-DZ): 0.207 µM | IC50 (IST-MES1): 0.214 µM | IC50 (OMC-1): 0.565 µM | IC50 (HuTu80): 0.087 µM | IC50 (NCI-H226): 2.46 µM | IC50 (D-247MG): 0.936 µM | IC50 (OS-RC-2): 0.737 µM | IC50 (KINGS-1): 2.75 µM | IC50 (A388): 0.167 µM | IC50 (SW872): 0.0589 µM | IC50 (SK-MEL-2): 0.23 µM | IC50 (no-10): 0.277 µM | IC50 (MFM-223): 0.847 µM | IC50 (GOTO): 0.171 µM | IC50 (NCI-N87): 2.2 µM | IC50 (MZ2-MEL): 0.212 µM | IC50 (NCI-H1648): 1.12 µM | IC50 (UACC-257): 0.552 µM | IC50 (GI-1): 0.128 µM | IC50 (ACN): 0.696 µM | IC50 (SHP77): 0.451 µM | IC50 (LC-2-ad): 0.424 µM | IC50 (GAK): 2.03 µM | IC50 (NEC8): 0.145 µM

CN(C)C(=N)NC(=N)N [METFORMIN]
IC50 (OCI-AML2): > 20000 µM | IC50 (NTERA-2-cl-D1): 19500 µM | IC50 (TE-12): > 20000 µM | IC50 (JAR): 9030 µM | IC50 (LS-123): 17300 µM | IC50 (EKVX): > 20000 µM | IC50 (MEG-01): 8620 µM | IC50 (ES5): 14700 µM | IC50 (NCI-H720): 534 µM | IC50 (COLO-320-HSR): > 20000 µM | IC50 (HCC 2998): > 20000 µM | IC50 (SK-N-DZ): 13300 µM | IC50 (NCI-H510A): 1310 µM | IC50 (IST-MES1): > 20000 µM | IC50 (OMC-1): 16500 µM | IC50 (HuTu80): > 20000 µM | IC50 (D-247MG): > 20000 µM | IC50 (HDLM-2): 18400 µM | IC50 (OS-RC-2): 13000 µM | IC50 (LU-139): > 20000 µM | IC50 (KINGS-1): > 20000 µM | IC50 (A388): > 20000 µM | IC50 (JVM-3): > 20000 µM | IC50 (L-363): 6740 µM | IC50 (SK-MEL-2): > 20000 µM | IC50 (CTB-1): > 20000 µM | IC50 (MFM-223): > 20000 µM | IC50 (GOTO): > 20000 µM | IC50 (NCI-N87): > 20000 µM | IC50 (MZ2-MEL): > 20000 µM | IC50 (NCI-H1648): > 20000 µM | IC50 (UACC-257): 13900 µM | IC50 (GI-1): > 20000 µM | IC50 (SHP77): > 20000 µM | IC50 (GAK): > 20000 µM | IC50 (MOLT-16): > 20000 µM | IC50 (DB): > 20000 µM | IC50 (NEC8): 16000 µM
